Literature values as cited in publication PMC8066102, “Metabolic Profiles of New Unsymmetrical Bisacridine Antitumor Agents in Electrochemical and Enzymatic Noncellular Systems and in Tumor Cells” (Pharmaceuticals, 2021).

Set-up: method as in PMID 2810109, PMID 12920162
Details: after UGT2B7 glucuronidation; cited from earlier work

## CN1CC[C@]23c4c5ccc(O)c4O[C@H]2[C@@H](O[C@@H]2O[C@H](C(=O)O)[C@@H](O)[C@H](O)[C@H]2O)C=C[C@H]3[C@H]1C5 [morphine-6-glucuronide]
  analgesic activity relative to morphine: 650 fold
